Measured values as given in patent US20260152490A1, “METHYLLACTAM RING COMPOUND AND PHARMACEUTICAL USE THEREOF” (Japan Tobacco Inc., priority 2018, published 2026).

Columns and labels:
[1] = test system: Salmonella typhimurium (TA98, TA1537, TA100, and TA1535) and Escherichia coli (WP2uvrA); test: Ames test (reverse mutation test), all tester strains: overall conclusion and precipitation; type: cell-based; parameters: key to Precipitation: * Growth inhibition; †: Precipitation
From the text: (§1) Metabolite 1 and Metabolite C were each tested herein.
(§2) Two plates per treatment were used.

Escherichia coli WP2uvrA = test: Ames test (reverse mutation test), WP2uvrA; type: cell-based; conditions: without S9 mix, 0.01 μg/plate, positive control
From the text: as §1, §2

[2] = test system: Salmonella typhimurium TA98; test: Ames test (reverse mutation test), TA98; type: cell-based; conditions: TA98 with S9 mix
From the text: as §1, §2

[3] = test system: Salmonella typhimurium TA100; test: Ames test (reverse mutation test), TA100; type: cell-based; conditions: TA100 with S9 mix
From the text: as §1, §2

glucose-loaded SD rats [4] = test: OGTT (Oral Glucose Tolerance Test), Test Example 3; type: in vivo; conditions: male SD rat, 3 mg/kg orally, glucose load after 16 hours, to 120 minutes, compared to vehicle
Experimental: Vehicle (0.5% methylcellulose solution) or Compound 1, Compound A, or Compound B (3 mg/kg each) suspended in a 0.5% methylcellulose solution was orally administered in 5 mL/kg to an about 4-hour-fasted male SD rat (8-week old, Nihon Charles River K.K., 5 cases for each group).
Statistical analyses were based on Dunnett's multiple group test. The significance level was two-sided 5%.

glucose-loaded SD rats [5] = test: OGTT (Oral Glucose Tolerance Test), Test Example 2; type: in vivo; conditions: male SD rat, 1, 3, or 10 mg/kg orally, glucose load after 16 hours, to 120 minutes, compared to vehicle
Experimental: Vehicle (0.5% methylcellulose solution) or Compound 1 (1, 3, or 10 mg/kg) suspended in a 0.5% methylcellulose solution was orally administered in 5 mL/kg to an about 4-hour-fasted male SD rat (8-week old, Nihon Charles River K.K., 6 cases for each group).
Statistical analyses were based on Steel's multiple test. The significance level was two-sided 5%.

[6] = test system: Salmonella typhimurium TA1535; test: Ames test (reverse mutation test), TA1535; type: cell-based; conditions: TA1535, with S9 mix, 2.0 μg/plate, positive control
From the text: as §1, §2

Compound: CC(C)(C)Oc1cc(F)cc(-c2cc(N)nn2C(F)(F)F)c1 [Metabolite 1]
- potential to induce reverse mutations ([1]; any of the bacterial tester strains, presence or absence of S9 mix): did not have potential to induce reverse mutations
- Precipitation ([1]; with S9 mix, 556 μg/plate, Table 1 (TA98, TA100)): †
- Precipitation ([1]; with S9 mix, 1667 μg/plate, Table 1 (TA98, TA100)): †
- Precipitation ([1]; with S9 mix, 5000 μg/plate, Table 1 (TA98, TA100)): †
- Precipitation ([1]; with S9 mix, 5000 μg/plate, Table 2 (TA1537, TA1535, WP2uvrA)): †
- Precipitation ([1]; without S9 mix, 5000 μg/plate, Table 4 (all five strains)): †

Compound: NC(=O)C(=Cc1ccc([N+](=O)[O-])o1)c1ccco1 [AF-2, 2-(2-Furyl)-3-(5-nitro-2-furyl)acrylamide]
- Number of revertant colonies (Escherichia coli WP2uvrA; Table 4): 69
- Number of revertant colonies (Escherichia coli WP2uvrA; Table 7): 74

Compound: CC(C)(C)Oc1cccc(-c2cc(N)nn2-c2ccccc2)c1 [Metabolite C]
- potential to induce reverse mutations [2]: had potential to induce reverse mutations
- potential to induce reverse mutations [3]: had potential to induce reverse mutations
- Precipitation ([1]; with S9 mix, 556 μg/plate, Table 6 (TA1537, TA1535, WP2uvrA)): †
- Precipitation ([1]; with S9 mix, 1667 μg/plate, Table 6 (TA1537, TA1535, WP2uvrA)): †
- Precipitation ([1]; with S9 mix, 5000 μg/plate, Table 6 (TA1537, TA1535, WP2uvrA)): †
- Precipitation ([1]; without S9 mix, 556 μg/plate, Table 7 (all five strains)): †
- Precipitation ([1]; without S9 mix, 1667 μg/plate, Table 7 (all five strains)): †
- Precipitation ([1]; without S9 mix, 5000 μg/plate, Table 7 (all five strains)): †

Compound: C[C@H]1C(=O)NC[C@@H]1C(=O)Nc1cc(-c2cc(F)cc(OC(C)(C)C)c2)n(C(F)(F)F)n1 [Compound 1, (3R,4R)—N-(5-(3-(tert-butoxy)-5-fluorophenyl)-1-(trifluoromethyl)-1H-pyrazol-3-yl)-4-methyl-5-oxopyrrolidine-3-carboxamide]
- blood glucose level after the glucose load (A AUC, % of Vehicle) (glucose-loaded SD rats [4]): significantly reduced the blood glucose level
- blood glucose level after the glucose load (Δ AUC, % of Vehicle) (glucose-loaded SD rats [5]): significantly reduced the blood glucose level

Compound: Nc1ccc2cc3ccccc3cc2c1 [Compound 2AA, 2-Aminoanthracene]
- Number of revertant colonies ([6]; Table 2): 223
- Number of revertant colonies ([6]; Table 6): 250
